# Measured values from article PMC4300089, “Structure-Guided Design of Selective Epac1 and Epac2 Agonists” (PLoS Biology, 2015).
# Changes are numbered by the printed parent chain. pEC50: −log10 of the molar value. Values joined by “and” are separate entries in the source; they are usually repeats but may differ in a detail not shown here. Equal values may be shown once.
# What was measured:
# Assay type in all cases: biochemical
# PKA-IIα = target: T1, PKA-IIα (Homo sapiens, UniProt P13861); test: PKA activity assay, PKA-IIα; conditions: for A (PKA activity): PKAIIα
# T1 construct: made in house
# Description: The recombinant human PKA catalytic subunit (Cα1) and the four human PKA regulatory subunits (RIα, RIβ, RIIα, RIIβ) were expressed, purified, and characterized as described. […] PKA holoenzymes were formed by mixing the R- and C-subunit at a molar ratio of 1.2:1 and extensive dialysis against 20 mM MOPS (pH 7.0), 150 mM NaCl, 2.5 mM β-mercaptoethanol, supplemented with 1 mM ATP and 10 mM MgCl2 for PKA-I at 4°C overnight. PKA holoenzymes were used at about 20 nM for the activation assay. The apparent activation constants (Kact) were determined by fitting the concentration-dependent activity to a sigmoid dose-response model.
# Epac2^Δ280,K450E = target: T2, Epac2^Δ280,K450E (Mus musculus, UniProt Q9EQZ6, K468E); test: Epac activation assay, Epac2 K450E mutant
# T2 construct: made in house
# T2 sequence (Q9EQZ6 281-993 isoform Q9EQZ6-3 K450E): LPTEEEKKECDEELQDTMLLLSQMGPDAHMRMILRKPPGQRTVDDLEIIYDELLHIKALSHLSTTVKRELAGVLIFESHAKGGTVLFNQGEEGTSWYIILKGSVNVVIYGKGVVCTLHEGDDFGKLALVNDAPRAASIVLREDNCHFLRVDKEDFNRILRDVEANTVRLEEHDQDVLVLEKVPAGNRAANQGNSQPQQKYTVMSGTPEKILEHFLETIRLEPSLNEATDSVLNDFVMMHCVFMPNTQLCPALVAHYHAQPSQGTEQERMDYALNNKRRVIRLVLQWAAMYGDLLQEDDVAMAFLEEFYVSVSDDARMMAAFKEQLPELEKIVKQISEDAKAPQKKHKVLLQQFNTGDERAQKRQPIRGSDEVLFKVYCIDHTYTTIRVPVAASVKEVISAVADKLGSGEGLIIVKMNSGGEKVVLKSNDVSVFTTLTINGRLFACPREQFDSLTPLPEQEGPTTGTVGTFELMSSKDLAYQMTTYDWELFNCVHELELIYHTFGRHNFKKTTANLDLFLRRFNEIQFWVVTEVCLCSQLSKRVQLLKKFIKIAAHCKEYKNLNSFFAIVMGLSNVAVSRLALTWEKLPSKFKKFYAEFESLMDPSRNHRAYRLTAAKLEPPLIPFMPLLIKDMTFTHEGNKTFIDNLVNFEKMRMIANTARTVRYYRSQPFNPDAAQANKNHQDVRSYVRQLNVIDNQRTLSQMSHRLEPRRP
# Description: (§1) Murine Epac2 was used as all previous structural studies were performed with it.
# (§2) The activity of Epac was determined by a fluorescence assay. […] The fluorescence intensity of Rap1B•mGDP is approximately twice that of free mGDP, and thus, nucleotide exchange can be observed as a decay in fluorescence upon the addition of excess unlabeled GDP.
# Epac2^Δ280,K450A = target: T3, Epac2^Δ280,K450A (Mus musculus, UniProt Q9EQZ6, K468A); test: Epac activation assay, Epac2 K450A mutant
# T3 construct: made in house
# T3 sequence (Q9EQZ6 281-993 isoform Q9EQZ6-3 K450A): T2 sequence (Q9EQZ6 281-993 isoform Q9EQZ6-3 K450E) with E170A
# Description: as §1, §2
# T1 sequence (P13861 whole entry): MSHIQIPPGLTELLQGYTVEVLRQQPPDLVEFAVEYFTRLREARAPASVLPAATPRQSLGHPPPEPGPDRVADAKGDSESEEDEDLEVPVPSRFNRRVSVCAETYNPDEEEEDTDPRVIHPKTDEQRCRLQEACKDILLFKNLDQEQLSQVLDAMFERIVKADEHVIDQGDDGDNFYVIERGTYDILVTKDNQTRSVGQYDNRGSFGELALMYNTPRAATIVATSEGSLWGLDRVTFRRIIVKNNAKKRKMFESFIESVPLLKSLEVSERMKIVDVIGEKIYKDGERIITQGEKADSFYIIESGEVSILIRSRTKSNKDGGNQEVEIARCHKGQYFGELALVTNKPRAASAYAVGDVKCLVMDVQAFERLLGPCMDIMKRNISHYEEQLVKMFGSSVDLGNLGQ
smiles,measurement,setting,value
"COC1C2OP(=O)(O)OCC2OC1n1c(Sc2ccc(Cl)cc2)nc2c(N)ncnc21 [D-007, 8-pCPT-2′-O-Me-cAMP, reference compound]",pEC50,"PKA-IIα; PKA-IIα, read-out: Kact",< 4.15
same,A (PKA activity),PKA-IIα; concentration 1 μM,7.998 U/mg
same,A (PKA activity),PKA-IIα; concentration 1.00E+01 μM,1.14E+01 U/mg
same,A (PKA activity),PKA-IIα; concentration 1.00E+03 μM,1.97E+01 U/mg
same,A (PKA activity),PKA-IIα; concentration 1.00E-01 μM,4.917 U/mg
same,A (PKA activity),PKA-IIα; concentration 1.00E-02 μM,4.453 U/mg
same,A (PKA activity),PKA-IIα; concentration 1.00E-03 μM,5.045 U/mg
same,A (PKA activity),PKA-IIα; concentration 1.00E-04 μM,4.937 U/mg
same,A (PKA activity),PKA-IIα; concentration 1.00E-05 μM,3.782 U/mg
same,A (PKA activity),PKA-IIα; concentration 2.50E+02 μM,1.57E+01 U/mg
same,A (PKA activity),PKA-IIα; concentration 5.00E+01 μM,1.39E+01 U/mg
same,A (PKA activity),PKA-IIα; concentration 5.00E+02 μM,1.77E+01 U/mg
same,A (PKA activity),PKA-IIα; concentration […],9.518 U/mg
"Nc1ncnc2c1ncn2C1OC2COP(O)(=S)OC2C1O (stereo not drawn) [S-000, Sp-cAMPS]",kobs,"Epac2^Δ280,K450E; 0.01 μM compound",4.6e-05 s⁻¹
same,kobs,"Epac2^Δ280,K450E; 0.05 μM compound",6.3e-05 s⁻¹
same,kobs,"Epac2^Δ280,K450E; 0.08 μM compound",7.4e-05 s⁻¹
same,kobs,"Epac2^Δ280,K450E; 0.1 μM compound",8e-05 s⁻¹ and 9.8e-05 s⁻¹
same,kobs,"Epac2^Δ280,K450E; 0.3 μM compound",0.000139 s⁻¹
same,kobs,"Epac2^Δ280,K450E; 0.4 μM compound",0.000171 s⁻¹
same,kobs,"Epac2^Δ280,K450E; 0.5 μM compound",0.000194 s⁻¹
same,kobs,"Epac2^Δ280,K450E; 0.6 μM compound",0.000231 s⁻¹
same,kobs,"Epac2^Δ280,K450E; 0.7 μM compound",0.000249 s⁻¹
same,kobs,"Epac2^Δ280,K450E; 0.8 μM compound",0.000268 s⁻¹
same,kobs,"Epac2^Δ280,K450E; 1 μM compound",0.000297 s⁻¹
same,kobs,"Epac2^Δ280,K450E; 2 μM compound",0.000427 s⁻¹
same,kobs,"Epac2^Δ280,K450E; 3 μM compound",0.000527 s⁻¹
same,kobs,"Epac2^Δ280,K450E; 4 μM compound",0.000575 s⁻¹
same,kobs,"Epac2^Δ280,K450E; 5 μM compound",0.000593 s⁻¹
same,kobs,"Epac2^Δ280,K450E; 6 μM compound",0.000641 s⁻¹
same,kobs,"Epac2^Δ280,K450E; 7 μM compound",0.000636 s⁻¹
same,kobs,"Epac2^Δ280,K450E; 8 μM compound",0.00067 s⁻¹
same,kobs,"Epac2^Δ280,K450E; 10 μM compound",0.000647 s⁻¹
same,kobs,"Epac2^Δ280,K450E; 20 μM compound",0.000817 s⁻¹
same,kobs,"Epac2^Δ280,K450E; 30 μM compound",0.000851 s⁻¹
same,kobs,"Epac2^Δ280,K450E; 40 μM compound",0.00083 s⁻¹
same,kobs,"Epac2^Δ280,K450E; 50 μM compound",0.000833 s⁻¹
same,kobs,"Epac2^Δ280,K450E; 60 μM compound",0.000819 s⁻¹
same,kobs,"Epac2^Δ280,K450E; 70 μM compound",0.000826 s⁻¹
same,kobs,"Epac2^Δ280,K450E; 80 μM compound",0.000827 s⁻¹
same,kobs,"Epac2^Δ280,K450E; 100 μM compound",0.000823 s⁻¹
same,kobs,"Epac2^Δ280,K450A; 0.01 μM compound",2.9e-05 s⁻¹
same,kobs,"Epac2^Δ280,K450A; 0.03 μM compound",3.7e-05 s⁻¹
same,kobs,"Epac2^Δ280,K450A; 0.05 μM compound",4.5e-05 s⁻¹
same,kobs,"Epac2^Δ280,K450A; 0.08 μM compound",5.2e-05 s⁻¹
same,kobs,"Epac2^Δ280,K450A; 0.2 μM compound",9.9e-05 s⁻¹
same,kobs,"Epac2^Δ280,K450A; 0.3 μM compound",0.000114 s⁻¹
same,kobs,"Epac2^Δ280,K450A; 0.5 μM compound",0.000137 s⁻¹
same,kobs,"Epac2^Δ280,K450A; 0.6 μM compound",0.000137 s⁻¹
same,kobs,"Epac2^Δ280,K450A; 0.7 μM compound",0.000253 s⁻¹
same,kobs,"Epac2^Δ280,K450A; 0.8 μM compound",0.000277 s⁻¹
same,kobs,"Epac2^Δ280,K450A; 1 μM compound",0.000309 s⁻¹
same,kobs,"Epac2^Δ280,K450A; 2 μM compound",0.000364 s⁻¹
same,kobs,"Epac2^Δ280,K450A; 3 μM compound",0.00043 s⁻¹
same,kobs,"Epac2^Δ280,K450A; 4 μM compound",0.000497 s⁻¹
same,kobs,"Epac2^Δ280,K450A; 5 μM compound",0.000529 s⁻¹
same,kobs,"Epac2^Δ280,K450A; 6 μM compound",0.000661 s⁻¹
same,kobs,"Epac2^Δ280,K450A; 7 μM compound",0.000655 s⁻¹
same,kobs,"Epac2^Δ280,K450A; 8 μM compound",0.000698 s⁻¹
same,kobs,"Epac2^Δ280,K450A; 10 μM compound",0.000703 s⁻¹
same,kobs,"Epac2^Δ280,K450A; 20 μM compound",0.000752 s⁻¹
same,kobs,"Epac2^Δ280,K450A; 30 μM compound",0.000754 s⁻¹
same,kobs,"Epac2^Δ280,K450A; 40 μM compound",0.000809 s⁻¹
same,kobs,"Epac2^Δ280,K450A; 50 μM compound",0.000778 s⁻¹
same,kobs,"Epac2^Δ280,K450A; 60 μM compound",0.000824 s⁻¹
same,kobs,"Epac2^Δ280,K450A; 70 μM compound",0.000828 s⁻¹
same,kobs,"Epac2^Δ280,K450A; 80 μM compound",0.000833 s⁻¹
same,kobs,"Epac2^Δ280,K450A; 100 μM compound",0.000821 s⁻¹
"Cc1ccc(CSc2nc3c(N)ncnc3n2[C@@H]2O[C@@H]3CO[P@](O)(=S)O[C@H]3[C@H]2O)cc1 [S-230, Sp-8-pMeBnT-cAMPS]",A (PKA activity),PKA-IIα; concentration 1 μM,8.2345 U/mg
same,A (PKA activity),PKA-IIα; concentration 5 μM,1.10E+01 U/mg
same,A (PKA activity),PKA-IIα; concentration 1.00E+01 μM,1.22E+01 U/mg
same,A (PKA activity),PKA-IIα; concentration 1.00E+03 μM,2.30E+01 U/mg
same,A (PKA activity),PKA-IIα; concentration 1.00E-01 μM,5.026 U/mg
same,A (PKA activity),PKA-IIα; concentration 1.00E-02 μM,4.542 U/mg
same,A (PKA activity),PKA-IIα; concentration 1.00E-04 μM,5.243 U/mg
same,A (PKA activity),PKA-IIα; concentration 1.00E-05 μM,3.782 U/mg
same,A (PKA activity),PKA-IIα; concentration 2.50E+02 μM,1.76E+01 U/mg
same,A (PKA activity),PKA-IIα; concentration 5.00E+01 μM,1.58E+01 U/mg
same,A (PKA activity),PKA-IIα; concentration 5.00E+02 μM,2.11E+01 U/mg
